ChEMBL document CHEMBL1149407, “Angelmarin, a novel anti-cancer agent able to eliminate the tolerance of cancer cells to nutrient starvation” (2006)
Calls of active or inactive are those of the source. The calls are words filed in the database; no cut-off is given here.

Key:
[1] = tested on: PANC-1; assay: Cytotoxicity in pancreatic PANC1 cancer cells at 100 ug/ml in nutrient-deprived condition; format: functional, cell-based; conditions: Homo sapiens
[2] = tested on: PANC-1; assay: Cytotoxicity in pancreatic PANC1 cancer cells at 100 ug/ml in nutrient-rich condition; format: functional, cell-based; conditions: Homo sapiens
[3] = tested on: PANC-1; assay: Cytotoxicity in pancreatic PANC1 cancer cells at 0.01 ug/ml within 24 hours of nutrient deprivation; format: functional, Homo sapiens
[4] = tested on: PANC-1; assay: Cytotoxicity in pancreatic PANC1 cancer cells at 10 ug/ml within 6 hours of nutrient deprivation; format: functional, Homo sapiens

Row | SMILES | Activity [1] | Activity [2] | Activity [3] | Activity [4]
1 | CC(C)(O)[C@@H]1Cc2c(ccc3ccc(=O)oc23)O1 | inactive | inactive | – | –
2 | CC(C)(OC(=O)/C=C/c1ccc(O)cc1)[C@@H]1Cc2c(ccc3ccc(=O)oc23)O1 [ANGELMARIN] | – | – | 100% | 100%
